Where two headings read alike, the source gives them in different places. Peptide text beside a SMILES is read from it. * marks the point of attachment. AMC = Cc1cc(=O)oc2cc(N*)ccc12; Boc = CC(C)(C)OC(=O)*
How the values were obtained:
Format in all cases: biochemical, S. cerevisiae
[1] = system: background activity in membranes of kex2[YEp24] cells; experiment: Endopeptidase activity in membranes from kex2 cells transformed with the vector YEp24 alone (background activity); settings: for Susceptibility of the background activity to inhibition: kex2 cells transformed with YEp24 alone
Method: (§1) Permeabilization of whole yeast cells with the non-ionic detergent Brij 58, preparation of crude membrane fractions, and measurement of protein concentration were conducted by the methods described previously (Julius et al., 1983, supra), incorporated herein by reference. To measure peptidase activity, samples of permeabilized cells or membrane material were added to a reaction mixture containing 0.1-0.5 mM fluorogenic peptide substrate (added from a 20 mM stock dissolved in DMSO) and 200 mM HEPES-Tris (pH 7.0), in a final volume of 0.4 ml. Following incubation for 30 min at 37° C., whole cells were removed by centrifugation in a microfuge (Eppendorf) and membrane material was removed by Ba(OH)2 -ZnSO4 precipitation. The amount of fluorescence formed in the supernatant solution was determined in a fluorescence spectrophotometer (Perkin-Elmer, Model MPF-44B), set either at an excitation wavelength of 335 nm and an emission wavelength of 410 nm (for measurement of β-naphthylamine) or at an excitation wavelength of 380 nm and an emission wavelength of 460 nm (for measurement of 7-amino-4-methyl-coumarin, AMC). To determine the number of moles of substrate hydrolyzed, the fluorescence yield of samples was compared to a standard curve prepared with known concentrations of authentic AMC dissolved in the same buffer.
(§2) Cells of strain XBH1615A that had been transformed with the plasmids
(§3) indicated, or that contained pJ2B in integrated form, were grown in SCUra
(§4) and membranes were prepared as described in the Experimental.
(§5) Endopeptidase activity was assayed as described in the Experimental. All
(§6) substrates tested were present at 0.1 mM.
(§7) Endopeptidase activity was assayed using Boc--GlnArgArg--MCA as the
(§8) substrate, as outlined in the Experimental. All inhibitors were added fro
(§9) a 0.1 M stock dissolved in dimethyl sulfoxide. All values given were
(§10) corrected for the slight effects of addition of this solvent alone.

[2] = target: T1, KEX2 endopeptidase (kex2[YEp24-pJ2B] membranes) (Saccharomyces cerevisiae, UniProt P13134); experiment: Endopeptidase activity in membranes from kex2 cells carrying multicopy plasmid pJ2B (over-produced specific endopeptidase); settings: for Relative Ratio: kex2[YEp24-pJ2B] relative to kex2[YEp24] = [1.0]; for Rate of hydrolysis, membranes from kex2 cells carrying pJ2B versus membranes from kex2 cells carrying YEp24 / Rate of hydrolysis (in words): membrane fractions; for Rate of hydrolysis, membranes from kex2 cells carrying pJ2B versus membranes from kex2 cells carrying YEp24: depending on the experiment; for Rate of hydrolysis (in words): endopeptidase substrates containing single arginine residues
T1 construct: not only includes the KEX2 gene, but also the necessary transcriptional and translational regulatory signals for expression in yeast; expressed in transfected cells; host or cells: S. cerevisiae XBH16-15A (MATalpha kex2-1) carrying YEp24-pJ2B
T1 sequence (P13134 114-814): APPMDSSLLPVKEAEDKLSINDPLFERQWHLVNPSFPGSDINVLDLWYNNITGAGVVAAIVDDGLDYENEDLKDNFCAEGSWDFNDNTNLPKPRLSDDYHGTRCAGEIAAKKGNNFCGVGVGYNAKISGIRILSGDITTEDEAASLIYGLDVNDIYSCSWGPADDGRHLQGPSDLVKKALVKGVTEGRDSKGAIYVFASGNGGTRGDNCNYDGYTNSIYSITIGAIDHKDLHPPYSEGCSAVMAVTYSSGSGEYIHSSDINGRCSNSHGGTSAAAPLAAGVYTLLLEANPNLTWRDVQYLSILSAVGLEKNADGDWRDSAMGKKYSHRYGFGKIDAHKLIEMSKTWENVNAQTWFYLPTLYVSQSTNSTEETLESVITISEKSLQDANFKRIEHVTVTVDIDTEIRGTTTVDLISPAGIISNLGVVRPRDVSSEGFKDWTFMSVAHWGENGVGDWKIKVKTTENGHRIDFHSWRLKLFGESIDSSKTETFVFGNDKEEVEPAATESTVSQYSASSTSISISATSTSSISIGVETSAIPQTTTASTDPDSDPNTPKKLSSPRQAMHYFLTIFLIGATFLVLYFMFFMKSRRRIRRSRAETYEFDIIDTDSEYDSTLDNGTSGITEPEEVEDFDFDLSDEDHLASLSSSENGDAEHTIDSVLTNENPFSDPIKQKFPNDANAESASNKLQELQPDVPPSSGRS
Method: as §1, §2, §3, §4, §5, §6, §7, §8
a 0.1 M stock dissolved in dimethyl sulfoxide.

[3] = target: T2, KEX2 endopeptidase (kex2::pJ2B membranes) (Saccharomyces cerevisiae, UniProt P13134); experiment: Endopeptidase activity in membranes from kex2 cells containing pJ2B in integrated form; settings: for Relative Ratio: kex2::pJ2B relative to kex2[YEp24] = [1.0]
T2 construct: not only includes the KEX2 gene, but also the necessary transcriptional and translational regulatory signals for expression in yeast; expressed in transfected cells; host or cells: S. cerevisiae XBH16-15A (MATalpha kex2-1) containing pJ2B in integrated form; crude membranes
Method: as §1, §2, §3, §4, §5, §6, §7, §8, §9, §10

[4] = strain kex2[YEp24], substrate 0.1 mM, membranes
[5] = strain kex2[YEp24-pJ2B], substrate 0.1 mM, membranes
[6] = strain kex2::pJ2B, substrate 0.1 mM, membranes
[7] = kex2[YEp24], inhibitor 1 mM, substrate Boc-GlnArgArg-MCA
[8] = kex2[YEp24], inhibitor 5 mM, substrate Boc-GlnArgArg-MCA
[9] = kex2[YEp24-pJ2B], inhibitor 1 mM, substrate Boc-GlnArgArg-MCA
[10] = kex2[YEp24-pJ2B], inhibitor 5 mM, substrate Boc-GlnArgArg-MCA
[11] = kex2 cells transformed with plasmid pJ2B, comparisons are to the background activity
[12] = kex2::pJ2B, inhibitor 1 mM, substrate Boc-GlnArgArg-MCA
[13] = kex2::pJ2B, inhibitor 5 mM, substrate Boc-GlnArgArg-MCA

## Cc1cc(=O)oc2cc(NC(=O)[C@@H](N)CCCNC(=N)N)ccc12 [Arg--MCA, Arg-MCA]
[1]; [4]
  Specific Activity: 6.7 pmoles AMC formed/μg protein 10
[2]; substrate 0.1 mM
  Relative Ratio: 2.1
[2]
  Rate of hydrolysis, membranes from kex2 cells carrying pJ2B versus membranes from kex2 cells carrying YEp24: no significant increase
[2]; [5]
  Specific Activity: 14.0 pmoles AMC formed/μg protein 10
[3]; substrate 0.1 mM
  Relative Ratio: 1.2
[3]; [6]
  Specific Activity: 8.0 pmoles AMC formed/μg protein 10

## CC[C@H](C)[C@H](NC(=O)OC(C)(C)C)C(=O)N[C@@H](CCC(=O)O)C(=O)NCC(=O)N[C@@H](CCCNC(=N)N)C(=O)Nc1ccc2c(C)cc(=O)oc2c1 [Boc--IleGluGlyArg--MCA, Boc-IleGluGlyArg-MCA] (Boc-IEGR-{AMC})
[1]; [4]
  Specific Activity: 0.3 pmoles AMC formed/μg protein 10
[2]; substrate 0.1 mM
  Relative Ratio: 19.3
[2]
  Rate of hydrolysis (in words): negligible rates
[2]; [5]
  Specific Activity: 5.8 pmoles AMC formed/μg protein 10
[3]; substrate 0.1 mM
  Relative Ratio: 3.0
[3]; [6]
  Specific Activity: 0.9 pmoles AMC formed/μg protein 10

## Cc1cc(=O)oc2cc(NC(=O)[C@H](CCCNC(=N)N)NC(=O)[C@H](CO)NC(=O)[C@H](Cc3ccccc3)NC(=O)OC(C)(C)C)ccc12 [Boc--PheSerArg--MCA, Boc-PheSerArg-MCA] (Boc-Phe-Ser-Arg-{AMC})
[1]; [4]
  Specific Activity: 0.6 pmoles AMC formed/μg protein 10
[2]; substrate 0.1 mM
  Relative Ratio: 51.7
[2]; membrane fractions of kex2 cells carrying pJ2B
  Rate of hydrolysis relative to Boc-GlnArgArg-MCA, times more slowly: about three times more slowly
[2]; [5]
  Specific Activity: 31.0 pmoles AMC formed/μg protein 10
[3]; substrate 0.1 mM
  Relative Ratio: 6.3
[3]; [6]
  Specific Activity: 3.8 pmoles AMC formed/μg protein 10

## Cc1cc(=O)oc2cc(NC(=O)[C@H](CCCNC(=N)N)NC(=O)c3ccccc3)ccc12 [Bz--Arg--MCA, Bz-Arg-MCA]
[1]; [4]
  Specific Activity: 0.1 pmoles AMC formed/μg protein 10
[2]; substrate 0.1 mM
  Relative Ratio: 6.0
[2]
  Rate of hydrolysis (in words): negligible rates
[2]; [5]
  Specific Activity: 0.6 pmoles AMC formed/μg protein 10
[3]; substrate 0.1 mM
  Relative Ratio: 1.0
[3]; [6]
  Specific Activity: 0.1 pmoles AMC formed/μg protein 10

## Cc1cc(=O)oc2cc(NC(=O)[C@@H](N)CC(C)C)ccc12 [Leu--MCA, Leu-MCA]
[1]; [4]
  Specific Activity: 33.7 pmoles AMC formed/μg protein 10
[2]; substrate 0.1 mM
  Relative Ratio: 2.1
[2]
  Rate of hydrolysis, membranes from kex2 cells carrying pJ2B versus membranes from kex2 cells carrying YEp24: no significant increase
[2]; [5]
  Specific Activity: 69.8 pmoles AMC formed/μg protein 10
[3]; substrate 0.1 mM
  Relative Ratio: 1.1
[3]; [6]
  Specific Activity: 37.9 pmoles AMC formed/μg protein 10

## O=S(=O)(F)Cc1ccccc1 [PMSF, phenylmethylsulfonyl fluoride]
[1]; [7]
  Inhibition: 45%
  Specific Activity: 2.8 pmoles/μg/10 min
[1]; [8]
  Inhibition: 71%
  Specific Activity: 1.5 pmoles/μg/10 min
[1]
  Susceptibility of the background activity to inhibition: sensitive to inhibition
[2]; [9]
  Inhibition: 0%
  Specific Activity: 116.7 pmoles/μg/10 min
[2]; [10]
  Inhibition: 0%
  Specific Activity: 110.2 pmoles/μg/10 min
[2]; [11]
  Susceptibility of the specific KEX2 endopeptidase to inhibition or inactivation: completely resistant
[3]; [12]
  Inhibition: 17%
  Specific Activity: 14.4 pmoles/μg/10 min
[3]; [13]
  Inhibition: 16%
  Specific Activity: 14.7 pmoles/μg/10 min

## Cc1ccc(S(=O)(=O)NC(CCCCN)C(=O)CCl)cc1 (centres unmarked) [TLCK, tosyl-lysine-chloromethylketone]
[1]; [7]
  Inhibition: 55%
  Specific Activity: 2.3 pmoles/μg/10 min
[1]; [8]
  Inhibition: 65%
  Specific Activity: 1.8 pmoles/μg/10 min
[1]
  Susceptibility of the background activity to inhibition: sensitive to inhibition
[2]; [9]
  Specific Activity: 100.8 pmoles/μg/10 min
  inhibition at 1000 µM: 7%
[2]; [10]
  Specific Activity: 95.5 pmoles/μg/10 min
  inhibition at 5000 µM: 12%
[2]; [11]
  Susceptibility of the specific KEX2 endopeptidase to inhibition or inactivation: completely resistant
[3]
  inhibition at 1000 µM: 16%
  inhibition at 5000 µM: 17%
[3]; [12]
  Specific Activity: 14.6 pmoles/μg/10 min
[3]; [13]
  Specific Activity: 14.5 pmoles/μg/10 min

## Cc1ccc(S(=O)(=O)NC(Cc2ccccc2)C(=O)CCl)cc1 (centres unmarked) [TPCK, tosyl-phenylalanine-chloromethylketone]
[1]; [7]
  Inhibition: 57%
  Specific Activity: 2.2 pmoles/μg/10 min
[1]; [8]
  Inhibition: 73%
  Specific Activity: 1.4 pmoles/μg/10 min
[1]
  Susceptibility of the background activity to inhibition: sensitive to inhibition
[2]; [9]
  Specific Activity: 105.9 pmoles/μg/10 min
  inhibition at 1000 µM: 2%
[2]; [10]
  Specific Activity: 109.2 pmoles/μg/10 min
  inhibition at 5000 µM: 0%
[2]; [11]
  Susceptibility of the specific KEX2 endopeptidase to inhibition or inactivation: completely resistant
[3]
  inhibition at 1000 µM: 18%
  inhibition at 5000 µM: 13%
[3]; [12]
  Specific Activity: 14.3 pmoles/μg/10 min
[3]; [13]
  Specific Activity: 15.2 pmoles/μg/10 min

## C[S+](C)[O-] [dimethyl sulfoxide]
[2]; [11]
  Susceptibility of the specific KEX2 endopeptidase to inhibition or inactivation: much less sensitive to inactivation

## NC=O [formamide]
[2]; [11]
  Susceptibility of the specific KEX2 endopeptidase to inhibition or inactivation: much less sensitive to inactivation

## NC(=O)CI [iodoacetamide]
[2]; [11]
  Susceptibility of the specific KEX2 endopeptidase to inhibition or inactivation: more susceptible to inhibition

## O=C(O)CI [iodoacetic acid]
[2]
  Susceptibility of the specific KEX2 endopeptidase to inhibition or inactivation: more susceptible to inhibition

## CO [methanol]
[2]
  Susceptibility of the specific KEX2 endopeptidase to inhibition or inactivation: much less sensitive to inactivation
